What was measured:
[1] = molecular target: T1, Acyl-CoA:cholesterol acyltransferase (Oryctolagus cuniculus, UniProt Q95214); test: Concentration required for the inhibition of cholesterol O-acyl transferase (ACAT) from cholesterol fed rabbit liver
T1 sequence (Q95214 whole entry): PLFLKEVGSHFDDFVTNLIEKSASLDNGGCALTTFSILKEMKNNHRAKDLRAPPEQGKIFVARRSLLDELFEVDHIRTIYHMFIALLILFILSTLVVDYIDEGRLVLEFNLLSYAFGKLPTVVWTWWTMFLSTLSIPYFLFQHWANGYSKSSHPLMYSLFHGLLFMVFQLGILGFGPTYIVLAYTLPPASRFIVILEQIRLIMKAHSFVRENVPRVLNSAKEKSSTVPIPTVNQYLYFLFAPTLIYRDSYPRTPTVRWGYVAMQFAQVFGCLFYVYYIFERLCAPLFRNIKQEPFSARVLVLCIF

[2] = molecular target: T2, Sterol O-acyltransferase 1 (Rattus norvegicus, UniProt O70536); test: Concentration required for the inhibition of cholesterol O-acyl transferase (ACAT) from rat liver
T2 sequence (O70536 whole entry): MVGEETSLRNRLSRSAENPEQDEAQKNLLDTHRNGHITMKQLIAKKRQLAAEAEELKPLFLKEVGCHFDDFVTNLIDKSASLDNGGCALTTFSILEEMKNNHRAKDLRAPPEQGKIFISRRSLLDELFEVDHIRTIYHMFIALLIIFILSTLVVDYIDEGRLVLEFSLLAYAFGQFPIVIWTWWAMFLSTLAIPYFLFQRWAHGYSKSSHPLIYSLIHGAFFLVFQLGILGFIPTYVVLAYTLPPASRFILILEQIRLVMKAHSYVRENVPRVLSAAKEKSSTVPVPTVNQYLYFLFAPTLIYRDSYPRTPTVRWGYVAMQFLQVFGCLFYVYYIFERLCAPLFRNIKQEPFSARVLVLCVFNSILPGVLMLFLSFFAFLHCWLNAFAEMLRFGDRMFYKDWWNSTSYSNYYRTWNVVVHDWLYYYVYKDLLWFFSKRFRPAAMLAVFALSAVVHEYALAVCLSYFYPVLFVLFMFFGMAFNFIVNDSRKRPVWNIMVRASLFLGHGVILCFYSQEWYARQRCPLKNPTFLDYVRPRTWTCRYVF

Oryctolagus cuniculus [3] = species on record: Oryctolagus cuniculus; test: Percent change of free cholesterol level in abdominal aorta of NZW rabbits form control; format: functional
Oryctolagus cuniculus [4] = species on record: Oryctolagus cuniculus; test: Percent change of free cholesterol level in abdominal aorta of NZW rabbits from control; format: functional
Oryctolagus cuniculus [5] = species on record: Oryctolagus cuniculus; test: Percent change of free cholesterol levels in thoracic aorta of NZW rabbits from control; format: functional
[6] = molecular target: T3, Sterol O-acyltransferase 1 (Cricetulus griseus, UniProt Q60457); test: Concentration required for the inhibition of Cholesterol O-acyl transferase from hamster liver
T3 sequence (Q60457 whole entry): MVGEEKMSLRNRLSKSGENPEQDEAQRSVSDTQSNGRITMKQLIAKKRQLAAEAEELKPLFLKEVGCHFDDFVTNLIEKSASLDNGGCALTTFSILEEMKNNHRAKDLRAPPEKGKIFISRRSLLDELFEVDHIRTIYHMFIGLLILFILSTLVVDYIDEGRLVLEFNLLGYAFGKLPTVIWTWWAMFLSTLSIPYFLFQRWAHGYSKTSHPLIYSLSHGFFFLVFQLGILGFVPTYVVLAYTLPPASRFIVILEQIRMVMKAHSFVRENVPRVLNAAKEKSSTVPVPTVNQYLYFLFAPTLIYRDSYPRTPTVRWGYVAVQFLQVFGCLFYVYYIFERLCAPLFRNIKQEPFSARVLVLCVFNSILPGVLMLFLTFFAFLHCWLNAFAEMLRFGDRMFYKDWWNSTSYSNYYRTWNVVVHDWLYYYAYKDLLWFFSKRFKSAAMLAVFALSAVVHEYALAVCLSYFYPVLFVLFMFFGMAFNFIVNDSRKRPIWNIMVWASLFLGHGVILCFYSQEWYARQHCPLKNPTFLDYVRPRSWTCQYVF

Oryctolagus cuniculus [7] = species on record: Oryctolagus cuniculus; test: Percent change of cholesterol esters level in abdominal aorta of NZW rabbits from control; format: functional
Oryctolagus cuniculus [8] = species on record: Oryctolagus cuniculus; test: Percent change of free cholesterol levels in thoracic aorta of NZW rabbits form control; format: functional
Oryctolagus cuniculus [9] = species on record: Oryctolagus cuniculus; test: Percent change of cholesterol ester level in thoracic aorta of NZW rabbits form control; format: functional
Oryctolagus cuniculus [10] = species on record: Oryctolagus cuniculus; test: Evaluated for the reduction of plasma cholesterol level in NZW rabbits with 5% cholesterol in diet; AUC; mM.days; format: functional
Oryctolagus cuniculus [11] = species on record: Oryctolagus cuniculus; test: Percent change of plasma cholesterol level in NZW rabbits form control; format: functional
Oryctolagus cuniculus [12] = species on record: Oryctolagus cuniculus; test: Percent change of cholesterol ester level in thoracic aorta of NZW rabbits from control; format: functional
Oryctolagus cuniculus [13] = species on record: Oryctolagus cuniculus; test: Percent change of cholesterol esters level in abdominal aorta of NZW rabbits form control; format: functional
Oryctolagus cuniculus [14] = species on record: Oryctolagus cuniculus; test: Evaluated for the reduction of plasma cholesterol level in NZW rabbits with 0.25% cholesterol in diet; format: functional
Oryctolagus cuniculus [15] = species on record: Oryctolagus cuniculus; test: Percent change of plasma cholesterol level in NZW rabbits from control; format: functional

| SMILES | IC50 [1] [µM] | IC50 [2] [µM] | further results |
| --- | --- | --- | --- |
| Cn1ccnc1S(=O)(=O)CCCSc1nc(-c2ccccc2)c(-c2ccccc2)[nH]1 | 8 | 0.011 | – |
| Cn1ccnc1SCCCCSc1nc(-c2ccccc2)c(-c2ccccc2)[nH]1 | 0.18 | 0.038 | – |
| c1ccc(-c2nc(SCCCCCn3cccn3)[nH]c2-c2ccccc2)cc1 | 0.28 | 0.024 | – |
| c1ccc(-c2nc(SCCCCCCn3cccn3)[nH]c2-c2ccccc2)cc1 | 0.59 | 0.048 | – |
| c1ccc(-c2nc(SCCCn3cccn3)[nH]c2-c2ccccc2)cc1 | > 1 | 0.05 | – |
| c1ccc(-c2nc(SCCCCCSc3ncc[nH]3)[nH]c2-c2ccccc2)cc1 | 0.88 | 0.044 | – |
| Cc1cc(C)n(CCCCCSc2nc(-c3ccccc3)c(-c3ccccc3)[nH]2)n1 | – | – | Change (Oryctolagus cuniculus [3]): <-36%; Change (Oryctolagus cuniculus [4]): <-27%; Change (Oryctolagus cuniculus [5]): <-36%; IC50 [6]: 0.012 µM; Change (Oryctolagus cuniculus [7]): <-40%; Change (Oryctolagus cuniculus [8]): <-44%; Change (Oryctolagus cuniculus [9]): <-40%; AUC (Oryctolagus cuniculus [10]): 1440 mM·days; Change (Oryctolagus cuniculus [11]): <-46%; Change (Oryctolagus cuniculus [12]): <-42%; Change (Oryctolagus cuniculus [13]): <-46%; AUC (Oryctolagus cuniculus [14]): 776 mM·days; Change (Oryctolagus cuniculus [15]): <-40% |
| Cn1ccnc1SCCCSc1nc(-c2ccccc2)c(-c2ccccc2)[nH]1 | 0.97 | 0.014 | – |
| CCCCCCCN(CCCCCSc1nc(-c2ccccc2)c(-c2ccccc2)[nH]1)C(=O)Nc1ccc(F)cc1F [LECIMIBIDE] | – | 0.01 | – |
